Experimental data reported in US10143198B2, “Use of propyl propane thiosulfinate and propyl propane thiosulfonate for the prevention and reduction of parasites in aquatic animals” (Investfood, LLC, priority 2013, dated 2018).

How the values were obtained:
[1] = test system: L3 larvae of Anisakis type I; conditions: 200, 300 and 500 ppm, in vitro, 36° C.
Source text: (§1) The objective of example 3 was to examine the activity of propyl propane thiosulphonate (PTSO) and propyl propane thiosulfinate (PTS) against L3 larvae of type I Anisakis and Hysterotylacium aduncum to explore the possible use of these compounds for prophylaxis treatments.
(§2) L3 of Anisakis type I and Hysterotylacium aduncum were collected by dissecting the fish Micromesistius poutassou (blue whiting) and Trachurus trachurus (mackerel) fished in the Cantabric sea, and selecting only larvae with a length greater than (>) 2.0 cm in the case of Anisakis, and greater than 0.8 cm for Hysterotylacium.
(§3) Larvae were axenised in antibiotic solution (Iglesias et al., 1997), introduced into polystyrene plate wells with 2 ml of sterile solution of 0.9% NaCl and the different concentrations of PTS alone, PTSO alone, and both PTS and PTSO (75, 200, 300 and 500 ppm) and then incubated at 36° C. in a 5% CO2 atmosphere. As controls, larvae were assayed without test compound under identical experimental conditions, and using only the solvent DMSO 1% (Dimethyl sulfoxide). Larvae were examined under stereoscopic microscope at 4, 8, 24, and 48 hours to test the biocidal effect of the compounds. Larvae with no mobility at all were considered dead. Each dilution was tested three times on larvae from fish captured on different days.

[2] = test system: L3 larvae of Hysterotylacium aduncum; conditions: 75 ppm, in vitro, 36° C.
Source text: as §1, §2, §3

Icthyobodo necator = experiment: oral treatment of Ichthyobodosis in rainbow trout, PTSO administered into feed; assay type: in vivo; conditions: for % infestation High / % infestation Low / % infestation minimal / % infestation Moderate / % infestation zero: 24 hours after end of assay; for % infestation High: High = more than 50 individuals per microscope field; for % infestation Low: Low = more than 1 individual, less than 10 per field; for % infestation minimal: Minimal = only 1 individual detected; for % infestation Moderate: Moderate = 10 to 50 per field; for % infestation zero: Zero = not detected
Experimental: In this example, a study of oral treatments of Ichthyobodosis in rainbow trout with different concentrations of Propyl propane thiosulphonate (PTSO) administered into feed was conducted.
Rainbow trout Oncornynchus mykiss were obtained from a local fish farm and acclimatized for at least 10 days before assay in 100 l tanks with aeration in closed systems of water (15±2° C., pH 7-7.5). The natural light-dark cycle was simulated (12 h light: 12 h dark). Fish were fed twice per day with a commercial feed (EFICO, Biomar, Spain). Parasite-free fish were experimentally infested by holding the parasite-free fish 25 days in a 100 l tank that also contained fish showing high-intensity infestation (20 uninfected fish to 10 infected fish).
Fish were anaesthetized by immersion in bath with 100 ppm of Tricaine methanesulfonate until respiration became weak. A mucus sample was then taken by gently scraping the body surface after examination of a sample area of 24×32 mm. The sample was mixed with 30 μl of distilled water on a slide, cover-slipped and examined to optic microscopy (400×).
Each treatment was assayed in 20 infected fish maintained in 100 L tanks with aeration in closed systems of water. The fish received feed containing three different treatments. The first group received a diet with 100 ppm of Propyl propane thiosulphonate (PTSO), the second received a diet supplemented with 300 ppm of PTSO, and the third received a diet with 300 ppm of metronidazole. All treatments were applied during a 10 day period. In all cases, feed was supplied at 2% of total body weight per day. Simultaneously, a positive control assay (also on 20 infected fish treated identically, but without any PTSO) and negative control assay (with 20 uninfected animals) were performed. Tanks conditions were identical to those during the acclimatization period.
Throughout the assay period the fish were monitored regularly to ensure that the fish were eating the food, and to check for signs of toxicity.
Of note, infestation intensity was based on a 5-point scale, as follows: Zero equals Ichthyobodo necator not being detected in the sample; Minimal equals only 1 individual of I. necator being detected in the sample; Low equals more than 1 individual of parasite being detected in the sample, the average number per microscope field being less than 10; Moderate equals an average number of individuals per microscope field of 10 to 50; High equals an average number of individuals per microscope field of more than 50.

Compound	anti-parasitic activity (mortality) [1]	anti-parasitic activity (mortality) [2]	% infestation High (Icthyobodo necator; 100 ppm in feed for 10 days) [%]	% infestation Low (Icthyobodo necator; 100 ppm in feed for 10 days) [%]	% infestation minimal (Icthyobodo necator; 100 ppm in feed for 10 days) [%]	% infestation Moderate (Icthyobodo necator; 100 ppm in feed for 10 days) [%]	% infestation zero (Icthyobodo necator; 100 ppm in feed for 10 days) [%]	% infestation High (Icthyobodo necator; 300 ppm in feed for 10 days) [%]	% infestation Low (Icthyobodo necator; 300 ppm in feed for 10 days) [%]	% infestation minimal (Icthyobodo necator; 300 ppm in feed for 10 days) [%]	% infestation Moderate (Icthyobodo necator; 300 ppm in feed for 10 days) [%]	% infestation zero (Icthyobodo necator; 300 ppm in feed for 10 days) [%]	antiparasitic activity, infestation intensity (Icthyobodo necator; oral in feed)
CCCS[S+]([O-])CCC (centres unmarked) [PTS, propyl propane thiosulfinate]	significant anti-parasitic activity	significant anti-parasitic activity	–	–	–	–	–	–	–	–	–	–	–
CCCSS(=O)(=O)CCC [PTSO, propyl propane thiosulfonate]	significant anti-parasitic activity	significant anti-parasitic activity	35	18	12	30	5	25	8	5	7	55	significant reduction of infestation intensity
Cc1ncc([N+](=O)[O-])n1CCO [Metronidazole, metronidazole, reference compound]	–	–	–	–	–	–	–	15	7	12	20	46	–
